Laboratory results reported in BindingDB's records for patent US20240417410 (Hoffmann-La Roche, 2024).

Target: Peptidyl-prolyl cis-trans isomerase A (Homo sapiens, UniProt P62937)
Test: CYPA Binding Analysis by Surface Plasmon Resonance (SPR) Assay
Experimental: All SPR experiments were conducted on a Biacore 8K+ instrument (Cytiva). Recombinant biotinylated CYPA protein with a C-terminal AVI tag was purified and immobilized on flow cell 2 of SA chip (Cytiva, BR100531), with the flow cell 1 as the blank reference. The running buffer was HBS-P+ Buffer (Cytiva, BR100827, 0.01 M HEPES pH 7.4,0.15 M NaCl, 0.05% v/v Surfactant P20), and the flow rate was 10 μL/min. The immobilization level was achieved to about 1800 response units (RU). Compounds were 3-fold serially diluted to 1.5-3333 nM using HBS-P+Buffer with a final DMSO concentration of 1.5%, and then loaded to flow through the chip surface at a rate of 30 μL/min with HBS-P+Buffer containing 1.5% DMSO as the running buffer. Experiments were performed at 25° C. The contact time and dissociation time were set to 60 s and 200 s, respectively. After binding and dissociation of each sample, the chip was regenerated using 1 M NaCl with a short contact time of 19 s at a rate of 60 μL/min. The sensorgrams were analyzed using Biacore Insight Evaluation software with 1:1 kinetics binding model to determine the association rate constant (kon), dissociation rate constant (koff) and equilibrium dissociation constant (KD).

Chain of Peptidyl-prolyl cis-trans isomerase A (P62937 whole entry): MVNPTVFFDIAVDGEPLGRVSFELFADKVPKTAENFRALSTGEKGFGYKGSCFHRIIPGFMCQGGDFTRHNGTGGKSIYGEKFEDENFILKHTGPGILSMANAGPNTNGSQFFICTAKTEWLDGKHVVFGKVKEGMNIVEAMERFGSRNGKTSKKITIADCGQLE

Kd: 0.03 µM
Compound: CCn1c(-c2cc(N3CCN(C)CC3)cnc2[C@H](C)OC)c2c3cc(ccc31)-c1csc(n1)C[C@H](NC(=O)[C@H]1C[C@@H]1C)C(=O)N1CCC[C@H](N1)C(=O)OCC(C)(C)O2 [US20240417410, Example A122]
